Source: BindingDB's records for doi:10.1016/s0960-894x(01)00248-7 (Smithkline Beecham Pharmaceuticals, 2001)
Several values for one entry are separate records, joined by “and”; a condition that tells them apart may be missing. Equal values may be shown once.

Assay: Agonistic activity of the compound against C-C chemokine receptor type 3 by displacing Eotaxin radioligand,using Esonophil chemotaxis assay

IC50: 32 nM and 25 nM
SMILES: COC(=O)[C@H](Cc1ccc([N+](=O)[O-])cc1)NC(=O)c1cccc2ccccc12 [(S)-2-[(Naphthalene-1-carbonyl)-amino]-3-(4-nitro-phenyl)-propionic acid methyl ester]
